# Molecular target: T1, prostanoid EP3 receptors (Homo sapiens, UniProt P43115)
# T1 sequence (P43115 1-390): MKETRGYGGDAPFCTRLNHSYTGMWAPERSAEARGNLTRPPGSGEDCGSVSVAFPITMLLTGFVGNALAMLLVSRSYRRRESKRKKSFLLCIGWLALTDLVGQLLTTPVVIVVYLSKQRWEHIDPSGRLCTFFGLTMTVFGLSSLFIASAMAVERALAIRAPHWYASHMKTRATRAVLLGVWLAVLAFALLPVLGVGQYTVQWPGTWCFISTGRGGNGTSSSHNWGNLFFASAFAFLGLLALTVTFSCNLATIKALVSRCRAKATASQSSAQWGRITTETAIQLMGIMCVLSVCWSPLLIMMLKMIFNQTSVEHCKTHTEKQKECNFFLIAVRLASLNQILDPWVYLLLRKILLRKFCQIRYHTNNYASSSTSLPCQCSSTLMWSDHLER
# Test: binding on prostanoid EP3 receptors (method of Abramovitz et al.)
# Conditions: Chart 1, read-out: Activity (EP3 receptor binding IC50 class)
# Experimental: (§1) The compounds of the invention were assayed for their binding on prostanoid EP3 receptors according to the method of Abramovitz et al. [Bioch. Biophys. Acta, 1473, 285-293 (2000)]. […] Compounds with IC50<1 μM are shown as +++; compounds with IC50 1-10 μM are shown as ++; and compounds with IC50>10 μM are shown as +.
# as §1, with “Acta.” for “Acta,”
row,SMILES,IC50
1,"O=C(O)C(=O)Nc1cccc2c1N(Cc1ccc3ccccc3c1)C(=O)CO2 [Compound A51, N-(4-Naphthalen-2-ylmethyl-3-oxo-3,4-dihydro-2H-benzo[1,4]oxazin-5-yl)-oxalamic acid]",> 10 µM
2,"O=C(O)/C=C/c1cccc2c(CO)cn(Cc3ccc(Cl)cc3Cl)c12 [Compound A10, (E)-3-[1-(2,4-Dichloro-benzyl)-3-hydroxymethyl-1H-indol-7-yl]-acrylic acid]",1 to 10 µM
3,"Cn1nc(NCC(=O)O)c2c(Oc3ccc4ccccc4c3)cccc21 [Compound A25, [1-Methyl-4-(naphthalen-2-yloxy)-1H-indazol-3-ylamino]-acetic acid]",< 1 µM
4,"CC12CCCC(/C=C/C(=O)O)=C1N(Cc1cccc(F)c1)C(=O)C2 (stereo not shown) [Compound A27, (E)-3-[1-(3-Fluoro-benzyl)-3a-methyl-2-oxo-2,3,3a,4,5,6-hexahydro-1H-indol-7-yl]-acrylic acid]",< 1 µM
5,"Cn1cc(/C=C/C(=O)O)c2c(Oc3ccc(Cl)cc3F)cccc21 [Compound A45, (E)-3-[4-(4-Chloro-2-fluoro-phenoxy)-1-methyl-1H-indol-3-yl]-acrylic acid]",< 1 µM
6,"CC12CCCC(/C=C/C(=O)O)=C1N(Cc1cccc(Cl)c1)C(=O)C2 (stereo not shown) [Compound A35, (E)-3-[1-(3-Chloro-benzyl)-3a-methyl-2-oxo-2,3,3a,4,5,6-hexahydro-1H-indol-7-yl]-acrylic acid]",1 to 10 µM
7,"Cc1cn(Cc2ccc(Cl)cc2Cl)c2c(/C=C/C(=O)O)cccc12 [Compound A09, (E)-3-[1-(2,4-Dichloro-benzyl)-3-methyl-1H-indol-7-yl]-acrylic acid]",< 1 µM
8,"O=C(O)/C=C/c1cccc2c1N(Cc1ccc(F)c(F)c1)C(=O)C2=O [Compound A60, (E)-3-[1-(3,4-Difluoro-benzyl)-2,3-dioxo-2,3-dihydro-1H-indol-7-yl]-acrylic acid]",1 to 10 µM
9,"CC12CCCC(CCC(=O)O)=C1N(Cc1ccc(F)c(F)c1)C(=O)C2 (stereo not shown) [Compound A50, 3-[1-(3,4-Difluoro-benzyl)-3a-methyl-2-oxo-2,3,3a,4,5,6-hexahydro-1H-indol-7-yl]-propionic acid]",1 to 10 µM
10,"CC12CCCC(CCC(=O)O)C1N(Cc1ccc(F)c(F)c1)C(=O)C2 (stereo not shown) [Compound A49, 3-[1-(3,4-Difluoro-benzyl)-3a-methyl-2-oxo-octahydro-indol-7-yl]-propionic acid]",1 to 10 µM
11,"O=C(O)/C=C/c1cccc2c1N(Cc1ccc(Cl)cc1Cl)C(=O)C2(F)F [Compound A20, (E)-3-[1-(2,4-Dichloro-benzyl)-3,3-difluoro-2-oxo-2,3-dihydro-1H-indol-7-yl]-acrylic acid]",1 to 10 µM
12,"Cc1cn(Cc2ccc(Cl)cc2Cl)c2c(/C=C/C(O)(C(F)(F)F)C(F)(F)F)cc(F)cc12 [Compound A64, (E)-4-[1-(2,4-Dichloro-benzyl)-5-fluoro-3-methyl-1H-indol-7-yl]-1,1,1-trifluoro-2-trifluoromethyl-but-3-en-2-ol]",1 to 10 µM
13,"O=C(O)COc1cccc2oc(=O)n(Cc3ccc4ccccc4c3)c12 [Compound A04, (3-Naphthalen-2-ylmethyl-2-oxo-2,3-dihydro-benzooxazol-4-yloxy)-acetic acid]",1 to 10 µM
14,"O=C(O)COc1cccc2ncn(Cc3ccc(Cl)cc3Cl)c12 [Compound A21, [3-(2,4-Dichloro-benzyl)-3H-benzoimidazol-4-yloxy]-acetic acid]",< 1 µM
15,"CC12CCCC(/C=C/C(=O)O)=C1N(Cc1cccc(Cl)c1Cl)C(=O)C2 (stereo not shown) [Compound A36, (E)-3-[1-(2,3-Dichloro-benzyl)-3a-methyl-2-oxo-2,3,3a,4,5,6-hexahydro-1H-indol-7-yl]-acrylic acid]",1 to 10 µM
16,"CCOC(=O)C12CCCC(/C=C/C(=O)O)=C1N(Cc1ccc(Cl)cc1Cl)C(=O)C2 (stereo not shown) [Compound A47, 7-((E)-2-Carboxy-vinyl)-1-(2,4-dichloro-benzyl)-2-oxo-1,2,3,4,5,6-hexahydro-indole-3a-carboxylic acid ethyl ester]",< 1 µM

# From US7714017B2, “Carboxylic acid peri-substituted bicyclics for occlusive artery disease” (Decode Genetics, EHF, priority 2004, dated 2010)
